# According to ChEMBL document CHEMBL1144544, “Solid-phase synthesis of a combinatorial library of dihydroceramide analogues and its activity in human alveolar epithelial cells” (Bioorg Med Chem, 2007):
# Activity calls are given as the source filed them. The calls are words filed in the database; no cut-off is given here.
# What was measured:
# A549 [1] = assay: Cell cycle arrest in human A549 cells by accumulation at G2 phase after 72 hrs relative to control by flow cytometry; type: functional; design: concentration or dose not given beside the values
# A549 [2] = assay: Cell cycle arrest in human A549 cells by accumulation at S phase after 72 hrs relative to control by flow cytometry; type: functional; design: concentration or dose not given beside the values
# A549 [3] = assay: Cell cycle arrest in human A549 cells by accumulation at G0/G1 phase after 72 hrs relative to control by flow cytometry; type: functional; design: concentration or dose not given beside the values
# A549 [4] = assay: Cytotoxicity against human A549 cells upto 1 mM in presence of <=5% FBS after 72 hrs by MTT test; type: cell-based; details: a549, 72 h
# A549 [5] = assay: Cytotoxicity against human A549 cells in presence of 10% FBS after 72 hrs by MTT test; type: cell-based; details: a549, 72 h
# A549 [6] = assay: Cytotoxicity against human A549 cells after 72 hrs by MTT test; type: cell-based; details: A549, 72 h
# A549 [7] = assay: Cytotoxicity against human A549 cells at 1 mM after 72 hrs by MTT test; type: cell-based; details: a549, 72 h, 1000 µM
# A549 [8] = assay: Cell death of human A549 cells assessed as increase in number of apoptotic cells by annexin V and propidium iodide staining by flow cytometry; type: functional, cell-based
# A549 [9] = assay: Cytotoxicity against human A549 cells upto 1 mM in presence of 10% FBS after 72 hrs by MTT test; type: cell-based; details: a549, 72 h
Structure (SMILES),Activity (A549 [1]) [%],Activity (A549 [2]) [%],Activity (A549 [3]) [%],IC50 (A549 [6]) [µM],further results
CCCCCCCCC(O)[C@H](CO)NC(=O)CCC1CCCC1 (some centres not stated),2.2,3.4,94.4,–,–
CCCCCCCCCCCCC/C=C/[C@@H](O)[C@H](CO)NC(=O)CCCCC,–,–,–,35,Activity (A549 [4]): Non-toxic; Activity (A549 [5]): Dose-dependent effect
CC(C)CC(=O)N[C@@H](CO)C(O)c1ccccc1 (some centres not stated),–,–,–,–,Activity (A549 [7]): Non-toxic
CCCCCCC(O)[C@H](CO)NC(=O)CC(C)C (some centres not stated),–,–,–,302,–
CCCCCCCc1ccc(C(=O)N[C@@H](CO)C(O)c2ccccc2)cc1 (some centres not stated),–,–,–,20,–
CC(O)[C@H](CO)NC(=O)CCC1CCCC1 (some centres not stated),–,–,–,–,Activity (A549 [7]): Non-toxic
CCCCCCCCC(O)[C@H](CO)NC(=O)c1ccc(CCCCCCC)cc1 (some centres not stated),4,3.4,92.6,20,Activity (A549 [8]): Active
CCCCCCCCCCCCC(O)[C@H](CO)NC(=O)Cc1ccc(OC)c(OC)c1 (some centres not stated),7,5.4,86.5,20,–
O=C(CCC1CCCC1)N[C@@H](CO)C(O)c1ccccc1 (some centres not stated),–,–,–,597,–
CCCCCCCCCCCCCCC[C@@H](O)[C@H](CO)NC(=O)CCCCC,–,–,–,–,Activity (A549 [9]): Not Active
CCCCCCCCCCCCCCC[C@@H](O)[C@H](CO)NC(=O)c1ccc(CCCCCCC)cc1,–,–,–,–,Activity (A549 [8]): inactive
CCCCCCCCCCCCCCC[C@H](O)[C@H](CO)NC(=O)c1ccc(CCCCCCC)cc1,5.4,11.5,83.1,108,Activity (A549 [8]): Active
CCCCCCC(O)[C@H](CO)NC(=O)c1ccccc1 (some centres not stated),–,–,–,290,–
CCCCCCCCC(O)[C@H](CO)NC(=O)c1ccccc1 (some centres not stated),2,8.4,89.6,–,–
CC(O)[C@H](CO)NC(=O)c1ccccc1 (some centres not stated),–,–,–,–,Activity (A549 [7]): Non-toxic
CC(O)[C@H](CO)NC(=O)c1ccc2ccccc2c1 (some centres not stated),–,–,–,–,Activity (A549 [7]): Non-toxic
CCCCCCCCCCCCC(O)[C@H](CO)NC(=O)c1ccc2ccccc2c1 (some centres not stated),2.2,7.4,90.4,–,–
CCCCCCCCC(O)[C@H](CO)NC(=O)c1ccc2ccccc2c1 (some centres not stated),3.4,5.4,91.2,–,–
CCCCCCCCC(O)[C@H](CO)NC(=O)CC(C)C (some centres not stated),5,10.5,84.5,–,–
CCCCCCCCCCCCC(O)[C@H](CO)NC(=O)c1ccc(CCCCCCC)cc1 (some centres not stated),4.4,7.4,88.2,–,–
O=C(N[C@@H](CO)C(O)c1ccccc1)c1ccccc1 (some centres not stated),–,–,–,689,–
CCCCCCCCCCCCC(O)[C@H](CO)NC(=O)c1ccccc1 (some centres not stated),4.2,12.8,83,–,–
CCCCCCCc1ccc(C(=O)N[C@@H](CO)C(O)CCCCCC)cc1 (some centres not stated),5.4,8.1,86.5,20,–
COc1ccc(CC(=O)N[C@@H](CO)C(C)O)cc1OC (some centres not stated),–,–,–,410,–
CCCCCCCCCCCCC(O)[C@H](CO)NC(=O)CC(C)C (some centres not stated),4.4,5.2,89.8,–,–
CCCCCCCCC(O)[C@H](CO)NC(=O)Cc1ccc(OC)c(OC)c1 (some centres not stated),5.5,10.5,84,–,–
CC(C)CC(=O)N[C@@H](CO)C(C)O (some centres not stated),–,–,–,–,Activity (A549 [7]): Non-toxic
O=C(N[C@@H](CO)C(O)c1ccccc1)c1ccc2ccccc2c1 (some centres not stated),–,–,–,580,–
